The values that follow come from patent publication US7045515B2, “β-lactam compounds process for reproducing the same and serum cholesterol-lowering agents containing the same” (Kotobuki Pharmaceutical Co., Ltd., priority 2001, dated 2006).

The term melting point denotes the temperature, or range, at which the solid turns liquid. Turning to `O=C(CC[C@H]1C(=O)N(c2ccccc2)[C@@H]1c1ccc(C[C@@H]2O[C@H](CO)[C@@H](O)[C@H](O)[C@H]2O)cc1)c1ccc(F)cc1` [Compound 27, (4S,3R)-4-(4-{[(2S,5S,3R,4R,6R)-3,4,5-Trihydroxy-6-(hydroxymethyl)perhydro-2H-pyran-2-yl]methyl}phenyl)-1-phenyl-3-[3-(4-fluorophenyl)-3-oxopropyl]azetidine-2-one], the melting point lay within 104 to 106 °C.

`O=C(O)c1ccc(N2C(=O)[C@H](CC[C@H](O)c3ccc(F)cc3)[C@H]2c2ccc(C[C@@H]3O[C@H](CO)[C@@H](O)[C@H](O)[C@H]3O)cc2)cc1` [Compound 29, 4-[(4S,3R)-3-[(3S)-3-(4-Fluorophenyl)-3-hydroxypropyl]-4-(4-{[(2S,5S,3R,4R,6R)-3,4,5-trihydroxy-6-(hydroxymethyl)perhydro-2H-pyran-2-yl]methyl}phenyl)-2-oxoazetidinyl]benzoic acid] came in with a melting point of 148 to 150 °C.

In the case of `O=C(O)c1ccc(N2C(=O)[C@H](CCC(=O)c3ccc(F)cc3)[C@H]2c2ccc(C[C@@H]3O[C@H](CO)[C@@H](O)[C@H](O)[C@H]3O)cc2)cc1` [Compound 30, 4-[(4S,3R)-4-(4-{[(2S,5S,3R,4R,6R)-3,4,5-Trihydroxy-6-(hydroxymethyl)perhydro-2H-pyran-2-yl]methyl}phenyl)-3-[3-(4-fluorophenyl)-3-oxopropyl]-2-oxoazetidinyl]benzoic acid], the melting point was 102 to 104 °C.

Consider `O=C(O)c1ccc(N2C(=O)[C@H](CCCc3ccc(F)cc3)[C@H]2c2ccc(C[C@@H]3O[C@H](CO)[C@@H](O)[C@H](O)[C@H]3O)cc2)cc1` [Compound 31, 4-[(4S,3R)-4-(4-{[(2S,5S,3R,4R,6R)-3,4,5-Trihydroxy-6-(hydroxymethyl)perhydro-2H-pyran-2-yl]methyl}phenyl)-3-[3-(4-fluorophenyl)propyl]-2-oxoazetidinyl]benzoic acid], for which the melting point was 97 to 99 °C.

In turn, `O=C(CC[C@H]1C(=O)N(c2ccc(F)cc2)[C@@H]1c1ccc([C@@H]2O[C@H](CO)[C@@H](O)[C@H](O)[C@H]2O)cc1)c1ccc(F)cc1` [Compound 34] had a melting point of 83 to 85 °C.

Take `O=C1[C@H](CC[C@H](O)c2ccc(F)cc2)[C@@H](c2ccc([C@@H]3O[C@H](CO)[C@@H](O)[C@H](O)[C@H]3O)cc2)N1c1ccc(F)cc1` [Compound 35]: the melting point was in the range of 81 to 83 °C.

`Cc1ccc(N2C(=O)[C@H](CC[C@H](O)c3ccc(F)cc3)[C@H]2c2ccc([C@@H]3O[C@H](CO)[C@@H](O)[C@H](O)[C@H]3O)cc2)cc1` [Compound 36] had a melting point of 79 to 81 °C.

Turning to `O=C1[C@H](CC[C@H](O)c2ccccc2)[C@@H](c2ccc(C[C@@H]3O[C@H](CO)[C@@H](O)[C@H](O)[C@H]3O)cc2)N1c1ccccc1` [Compound 41, 3-((3S)-3-Hydroxy-3-phenylpropyl)(4S,3R)-4-(4-{[(2S,5S,3R,4R,6R)-3,4,5-trihydroxy-6-(hydroxymethyl)perhydro-2H-pyran-2-yl]methyl}phenyl)-1-phenylazetidine-2-one], the melting point lay within 110 to 112 °C.

`CCOC(=O)c1ccc(N2C(=O)[C@H](CC[C@H](O)c3ccc(F)cc3)[C@H]2c2ccc(C[C@@H]3O[C@H](CO)[C@@H](O)[C@H](O)[C@H]3O)cc2)cc1` [Compound 42, 4-[3-((3S)-3-(4-Fluorophenyl)-3-hydroxypropyl](4S,3R)-4-(4-{[(2S,5S,3R,4R,6R)-3,4,5-trihydroxy-6-(hydroxymethyl)perhydro-2H-pyran-2-yl]methyl}phenyl)-2-oxoazetidinyl]benzoic acid ethyl ester] gave a melting point of 56 to 58 °C.

In the case of `Cc1ccc(N2C(=O)[C@H](CCOc3ccc(F)cc3)[C@H]2c2ccc(C[C@@H]3O[C@H](CO)[C@@H](O)[C@H](O)[C@H]3O)cc2)cc1` [Compound 43, 4-(4-{[(5S,2R,3R,4R,6R)-3,4,5-Trihydroxy-6-(hydroxymethyl)perhydro-2H-pyran-2-yl]methyl}phenyl)(4S,3R)-1-(4-methylphenyl)-3-[3-(4-fluorophenoxy)ethyl]azetidine-2-one], the melting point lay within 96 to 98 °C.
